Measured values reported in US5292733A, “Cephalosporin compounds” (Lucky Limited, priority 1991, dated 1994).
Converted amounts (≈) assume the structure as drawn.

Tests used:
Experiment in all cases: Antibacterial activity MIC, two-fold agar dilution
Format in all cases: cell-based
[1] = tested on: Bacillus megaterium ATCC 9885; details: Bacillus megaterium ATCC 9885, Muller-Hinton agar, 37° C., 20 hours; for MIC: Priestia megaterium, ATCC9885, read-out: Antibacterial Activity MIC
Outline: (§1)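 Inoculum: 2 μl, 10^7 CFU per ml. Medium: Muller-Hinton agar containing compound in two-fold serial dilutions. Conditions: 37° C., 20 hours; endpoint MIC.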

[2] = tested on: Proteus mirabilis ATCC 25933; details: Proteus mirabilis ATCC 25933, Muller-Hinton agar, 37° C., 20 hours; for MIC: ATCC25933, read-out: Antibacterial Activity MIC
Outline: as §1

[3] = tested on: Enterobacter cloacae ATCC 27508; details: Enterobacter cloacae ATCC 27508, Muller-Hinton agar, 37° C., 20 hours; for MIC: ATCC27508, read-out: Antibacterial Activity MIC
Outline: as §1

[4] = tested on: Klebsiella pneumoniae ATCC 10031; details: Klebsiella pneumoniae ATCC 10031, Muller-Hinton agar, 37° C., 20 hours; for MIC: ATCC10031, read-out: Antibacterial Activity MIC
Outline: as §1

[5] = tested on: Acinetobacter calcoaceticus ATCC 15473; details: Acinetobacter calcoaceticus ATCC 15473, Muller-Hinton agar, 37° C., 20 hours; for MIC: ATCC15473, read-out: Antibacterial Activity MIC
Outline: as §1

[6] = tested on: Streptococcus faecalis ATCC 29212; details: Streptococcus faecalis ATCC 29212, Muller-Hinton agar, 37° C., 20 hours; for MIC: Enterococcus faecalis, ATCC29212, read-out: Antibacterial Activity MIC
Outline: as §1

[7] = tested on: Enterobacter aerogenes ATCC 29751; details: Enterobacter aerogenes ATCC 29751, Muller-Hinton agar, 37° C., 20 hours; for MIC: Klebsiella aerogenes, ATCC29751, read-out: Antibacterial Activity MIC
Outline: as §1

[8] = tested on: Shigella sonnei ATCC 11060; details: 37° C., 20 hours; for MIC: ATCC11060, Muller-Hinton agar; for Antibacterial Activity MIC: Muller-Hinton agar
Outline: as §1

[9] = tested on: Escherichia coli ATCC 25922; details: 37° C., 20 hours; for MIC: ATCC25922, Muller-Hinton agar; for Antibacterial Activity MIC: Muller-Hinton agar
Outline: as §1

[10] = tested on: Staphylococcus aureus ATCC 6538p; details: Staphylococcus aureus ATCC 6538p, Muller-Hinton agar, 37° C., 20 hours; for MIC: ATCC6538P, read-out: Antibacterial Activity MIC
Outline: as §1

[11] = tested on: Staphylococcus aureus ATCC 10537; details: Staphylococcus aureus ATCC 10537, Muller-Hinton agar, 37° C., 20 hours; for MIC: ATCC10537, read-out: Antibacterial Activity MIC
Outline: as §1

[12] = tested on: Pseudomonas aeruginosa ATCC 10145; details: Pseudomonas aeruginosa ATCC 10145, Muller-Hinton agar, 37° C., 20 hours; for MIC: ATCC10145, read-out: Antibacterial Activity MIC
Outline: as §1

[13] = tested on: Providencia rettgeri ATCC 9250; details: 37° C., 20 hours; for MIC: ATCC9250, Muller-Hinton agar; for Antibacterial Activity MIC: Muller-Hinton agar
Outline: as §1

[14] = tested on: Staphylococcus epidermidis ATCC 12228; details: Staphylococcus epidermidis ATCC 12228, Muller-Hinton agar, 37° C., 20 hours; for MIC: ATCC12228, read-out: Antibacterial Activity MIC
Outline: as §1

[15] = tested on: Citrobacter freundii ATCC 8090; details: Citrobacter freundii ATCC 8090, Muller-Hinton agar, 37° C., 20 hours; for MIC: ATCC8090, read-out: Antibacterial Activity MIC
Outline: as §1

[16] = tested on: Morganella morganii ATCC 8076h; details: Muller-Hinton agar, 37° C., 20 hours; for MIC: ATCC8076H
Outline: as §1

[17] = tested on: Bacillus cereus ATCC 11778; details: Bacillus cereus ATCC 11778, Muller-Hinton agar, 37° C., 20 hours; for MIC: ATCC11778, read-out: Antibacterial Activity MIC
Outline: as §1

[18] = tested on: Pseudomonas aeruginosa ATCC 27853; details: Pseudomonas aeruginosa ATCC 27853, Muller-Hinton agar, 37° C., 20 hours; for MIC: ATCC27853, read-out: Antibacterial Activity MIC
Outline: as §1

[19] = tested on: Escherichia coli ATCC 10536; details: 37° C., 20 hours; for MIC: ATCC10536, Muller-Hinton agar; for Antibacterial Activity MIC: Muller-Hinton agar
Outline: as §1

[20] = tested on: Micrococcus luteus ATCC 9341; details: Micrococcus luteus ATCC 9341, Muller-Hinton agar, 37° C., 20 hours; for MIC: ATCC9341, read-out: Antibacterial Activity MIC
Outline: as §1

[21] = tested on: Salmonella typhimurium ATCC 14028; details: Salmonella typhimurium ATCC 14028, Muller-Hinton agar, 37° C., 20 hours; for MIC: Salmonella enterica, read-out: Antibacterial Activity MIC
Outline: as §1

[22] = tested on: Shigella flexneri ATCC 11836; details: 37° C., 20 hours; for MIC: ATCC11836, Muller-Hinton agar; for Antibacterial Activity MIC: Muller-Hinton agar
Outline: as §1

[23] = tested on: Proteus vulgaris ATCC 6059; details: Proteus vulgaris ATCC 6059, Muller-Hinton agar, 37° C., 20 hours; for MIC: ATCC6059, read-out: Antibacterial Activity MIC
Outline: as §1

[24] = tested on: Serratia marcescens ATCC 27117; details: Serratia marcescens ATCC 27117, Muller-Hinton agar, 37° C., 20 hours; for MIC: ATCC27117, read-out: Antibacterial Activity MIC
Outline: as §1

[25] = tested on: Pseudomonas aeruginosa ATCC 25619; details: Pseudomonas aeruginosa ATCC 25619, Muller-Hinton agar, 37° C., 20 hours; for MIC: ATCC25619, read-out: Antibacterial Activity MIC
Outline: as §1

CC[n+]1c(N)nc(N)nc1SCC1=C(C(=O)[O-])N2C(=O)C(NC(=O)/C(=N\OC(C)(C)C(=O)O)c3csc(N)n3)[C@H]2SC1 (stereo partly shown) [Compound I-24, 7-[(Z)-2-(2-aminothiazol-4-yl) -2-(2-carboxyprop-2-oxyimino)acetamido]-3-(4,6-diamino-1-ethyl-1,3,5-triazinium-2-yl)thiomethyl-3-cephem-4-carboxylate]
MIC [1]: 0.5 µg/mL (≈ 0.783 µM)
MIC [2]: 0.063 µg/mL (≈ 0.0986 µM)
MIC [3]: 0.031 µg/mL (≈ 0.0485 µM)
MIC [4]: 0.063 µg/mL (≈ 0.0986 µM)
MIC [5]: 4 µg/mL (≈ 6.26 µM)
MIC [6]: > 128 µg/mL
MIC [7]: 2 µg/mL (≈ 3.13 µM)
MIC [8]: 0.063 µg/mL (≈ 0.0986 µM)
MIC [9]: 0.063 µg/mL (≈ 0.0986 µM)
MIC [10]: 4 µg/mL (≈ 6.26 µM)
MIC [11]: 2 µg/mL (≈ 3.13 µM)
MIC [12]: 2 µg/mL (≈ 3.13 µM)
MIC [13]: ≤ 0.008 µg/mL
MIC [14]: 2 µg/mL (≈ 3.13 µM)
MIC [15]: 0.13 µg/mL (≈ 0.204 µM)
MIC [16]: ≤ 0.008 µg/mL
MIC [17]: > 128 µg/mL
MIC [18]: 1 µg/mL (≈ 1.57 µM)
MIC [19]: 0.13 µg/mL (≈ 0.204 µM)
MIC [20]: 1 µg/mL (≈ 1.57 µM)
MIC [21]: 0.13 µg/mL (≈ 0.204 µM)
MIC [22]: 0.063 µg/mL (≈ 0.0986 µM)
MIC [23]: 0.063 µg/mL (≈ 0.0986 µM)
MIC [24]: 0.13 µg/mL (≈ 0.204 µM)
MIC [25]: 1 µg/mL (≈ 1.57 µM)

CC(C)(O/N=C(\C(=O)NC1C(=O)N2C(C(=O)[O-])=C(CSc3nc(N)nc(N)[n+]3-c3ccccc3)CS[C@H]12)c1csc(N)n1)C(=O)O (stereo partly shown) [Compound I-25, 7-[(Z)-2-(2-aminothiazol-4-yl) -2-(2-carboxyprop-2-oxyimino)acetamido]-3-(4,6-diamino-1-phenyl-1,3,5-triazinium-2-yl)thiomethyl-3-cephem-4-carboxylate]
MIC [1]: 0.5 µg/mL (≈ 0.728 µM)
MIC [2]: 0.13 µg/mL (≈ 0.189 µM)
MIC [3]: 0.13 µg/mL (≈ 0.189 µM)
MIC [4]: 0.25 µg/mL (≈ 0.364 µM)
MIC [5]: 16 µg/mL (≈ 23.3 µM)
MIC [6]: > 128 µg/mL
MIC [7]: 2 µg/mL (≈ 2.91 µM)
MIC [8]: 0.25 µg/mL (≈ 0.364 µM)
MIC [9]: 0.25 µg/mL (≈ 0.364 µM)
MIC [10]: 4 µg/mL (≈ 5.82 µM)
MIC [11]: 4 µg/mL (≈ 5.82 µM)
MIC [12]: 4 µg/mL (≈ 5.82 µM)
MIC [13]: ≤ 0.008 µg/mL
MIC [14]: 4 µg/mL (≈ 5.82 µM)
MIC [15]: 0.5 µg/mL (≈ 0.728 µM)
MIC [16]: ≤ 0.008 µg/mL
MIC [17]: 128 µg/mL (≈ 186 µM)
MIC [18]: 2 µg/mL (≈ 2.91 µM)
MIC [19]: 0.13 µg/mL (≈ 0.189 µM)
MIC [20]: 0.5 µg/mL (≈ 0.728 µM)
MIC [21]: 0.25 µg/mL (≈ 0.364 µM)
MIC [22]: 0.13 µg/mL (≈ 0.189 µM)
MIC [23]: 0.13 µg/mL (≈ 0.189 µM)
MIC [24]: 0.13 µg/mL (≈ 0.189 µM)
MIC [25]: 1 µg/mL (≈ 1.46 µM)

(6R,7R)-7-[(Z)-2-(2-aminothiazol-4-yl)-2-(2-propyn-1-oxyimino)acetamido]-3-(2,6-diamino-3-methylpyrimidinium-4-yl)thiomethyl-3-cephem-4-carboxylate [Compound I-9]
Antibacterial Activity MIC [1]: 0.13 µg/mL
Antibacterial Activity MIC [2]: 0.016 µg/mL
Antibacterial Activity MIC [3]: 0.13 µg/mL
Antibacterial Activity MIC [4]: 0.063 µg/mL
Antibacterial Activity MIC [5]: 2 µg/mL
Antibacterial Activity MIC [6]: > 128 µg/mL
Antibacterial Activity MIC [7]: 0.5 µg/mL
Antibacterial Activity MIC [8]: 0.13 µg/mL
Antibacterial Activity MIC [9]: 0.063 µg/mL
Antibacterial Activity MIC [10]: 0.25 µg/mL
Antibacterial Activity MIC [11]: 0.25 µg/mL
Antibacterial Activity MIC [12]: 16 µg/mL
Antibacterial Activity MIC [13]: <= 0.008 μg/ml
Antibacterial Activity MIC [14]: 0.5 µg/mL
Antibacterial Activity MIC [15]: 0.13 µg/mL
Antibacterial Activity MIC [16]: <= 0.008 μg/ml
Antibacterial Activity MIC [17]: 64 µg/mL
Antibacterial Activity MIC [18]: 8 µg/mL
Antibacterial Activity MIC [19]: 0.016 µg/mL
Antibacterial Activity MIC [20]: 0.063 µg/mL
Antibacterial Activity MIC [21]: 0.5 µg/mL
Antibacterial Activity MIC [22]: 0.13 µg/mL
Antibacterial Activity MIC [23]: 0.016 µg/mL
Antibacterial Activity MIC [24]: 0.5 µg/mL
Antibacterial Activity MIC [25]: 2 µg/mL

(6R,7R)-7-[(Z)-2-(5-aminothiazol-4-yl)-2-(2-propyn-1-oxyimino)acetamido]-3-(2,6-diamino-1-methylpyrimidinium-4-yl)thiomethyl-3-cephem-4-carboxylate [Compound I-16]
Antibacterial Activity MIC [1]: 0.25 µg/mL
Antibacterial Activity MIC [2]: 1 µg/mL
Antibacterial Activity MIC [3]: 0.063 µg/mL
Antibacterial Activity MIC [4]: 0.016 µg/mL
Antibacterial Activity MIC [5]: 8 µg/mL
Antibacterial Activity MIC [6]: 32 µg/mL
Antibacterial Activity MIC [7]: 1 µg/mL
Antibacterial Activity MIC [8]: 0.5 µg/mL
Antibacterial Activity MIC [9]: 0.5 µg/mL
Antibacterial Activity MIC [10]: 0.5 µg/mL
Antibacterial Activity MIC [11]: 0.5 µg/mL
Antibacterial Activity MIC [12]: 8 µg/mL
Antibacterial Activity MIC [13]: <= 0.008 μg/ml
Antibacterial Activity MIC [14]: 0.25 µg/mL
Antibacterial Activity MIC [15]: 0.25 µg/mL
Antibacterial Activity MIC [16]: 0.016 µg/mL
Antibacterial Activity MIC [17]: 64 µg/mL
Antibacterial Activity MIC [18]: 4 µg/mL
Antibacterial Activity MIC [19]: 0.5 µg/mL
Antibacterial Activity MIC [20]: 0.031 µg/mL
Antibacterial Activity MIC [21]: 1 µg/mL
Antibacterial Activity MIC [22]: 0.25 µg/mL
Antibacterial Activity MIC [23]: 1 µg/mL
Antibacterial Activity MIC [24]: 2 µg/mL
Antibacterial Activity MIC [25]: 2 µg/mL
